Measurements from patent US20020032173A1, “Blood flow improvers and thrombosis preventives or remedies” (Koyo Chemical Co., Ltd., priority 2000, published 2002).
Values joined by “and” are separate entries in the source; they are usually repeats but may differ in a detail not shown here. Equal entries are not always repeated.

Tests used:
adult volunteers [1] = test: Test 3: whole blood transit time by MC-FAN after oral N-acetylglucosamine; format: in vivo, human; conditions: mean before administration 60.9 sec
Method: From each of adult volunteers (A: male, B: female, C: female, D: female, E: male) who had taken usual breakfast, a first blood sample (10 mL) was collected at 1:00 p.m. Immediately after the collection of the blood sample, 1.5 g of glucosamine hydrochloride with 50 mL of water was administered to the volunteer. Blood samples (10 mL, each; 5% heparinated) were collected upon elapsed time of 30 min, 60 min and 90 min after the administration. The fluidity of each blood sample was determined by a microchannel array flow analyzer (MC-FAN) which is a capillary model fabricated by VLSI technology. The determination was carried out as will be described below. […] A transit time necessary for 100 μL of the whole blood sample to pass through the microchannels was measured. Using a transit time necessary for 100 μL of physiological saline to pass through the microchannels as measured just before the blood measurement, the transit time of the whole blood sample was converted in accordance with the following equation: Transit time of the whole blood x 12 sec/transit time of the physiological saline to obtain a value which would have been available if the transmit time of physiological saline had been 12 sec. The value was recorded as a blood transit time. […]

adult volunteers [2] = test: Test 1: blood flow improving effects, whole blood transit time by microchannel array flow analyzer (MC-FAN) after oral glucosamine hydrochloride; format: in vivo, human; conditions: for Transit time: 100 μL heparinated whole blood; for Transit time, Mean: mean of 5 volunteers, mean before administration 50.3 sec
Method: From each of adult volunteers (A: male, B: female, C: female, D: female, E: male) who had taken usual breakfast, a first blood sample (10 mL) was collected at 1:00 p.m. Immediately after the collection of the blood sample, 1.5 g of glucosamine hydrochloride with 50 mL of water was administered to the volunteer. Blood samples (10 mL, each; 5% heparinated) were collected upon elapsed time of 30 min, 60 min and 90 min after the administration. The fluidity of each blood sample was determined by a microchannel array flow analyzer (MC-FAN) which is a capillary model fabricated by VLSI technology. The determination was carried out as will be described below. A fresh 5%-heparinated whole blood sample, which had been obtained by adding 0.5 part by weight of a 1,000 IU/mL heparin sodium solution to 9.5 parts by weight of the corresponding blood sample, was caused to flow through an array of 8,736 parallel microchannels of 7 μm in width, 30 μm in length and 4.5 μm in depth (Bloody 6-7) under 20 cmH2O suction by using the microchannel array flow analyzer (MC-FAN). A transit time necessary for 100 μL of the whole blood sample to pass through the microchannels was measured. Using a transit time necessary for 100 μL of physiological saline to pass through the microchannels as measured just before the blood measurement, the transit time of the whole blood sample was converted in accordance with the following equation: Transit time of the whole blood x 12 sec/transit time of the physiological saline to obtain a value which would have been available if the transmit time of physiological saline had been 12 sec. The value was recorded as a blood transit time. The results are shown in Table 1, including indices of whole blood transit times of the blood samples collected after the administration of the glucosamine hydrochloride based on those of the corresponding blood samples collected before the administration of glucosamine hydrochloride (% relative to an initial value of 100%).

SMILES | mean blood transit time (adult volunteers [1]; 30 min after administration as in Test 1) [s] | mean blood transit time (adult volunteers [1]; 1 hr after administration as in Test 1) | Index (%) of whole blood transit time relative to initial value of 100% (adult volunteers [2]; 30 min after oral 1.5 g) [%] | Index (%) of whole blood transit time relative to initial value of 100% (adult volunteers [2]; 60 min after oral 1.5 g) [%] | Transit time (adult volunteers [2]; individual volunteer E, 90 min after oral 1.5 g with 50 mL water) [s] | Transit time (adult volunteers [2]; individual volunteers A-E, 30 min after oral 1.5 g with 50 mL water, normalised to saline 12 sec, hydrochloride) | Transit time (adult volunteers [2]; individual volunteers A-E, 60 min after oral 1.5 g with 50 mL water, hydrochloride) | Transit time, Mean (adult volunteers [2]; 30 min after oral 1.5 g) [s] | Transit time, Mean (adult volunteers [2]; 60 min after oral 1.5 g) [s]
CC(=O)N[C@H]1C(O)O[C@H](CO)[C@@H](O)[C@@H]1O (stereo partly drawn) [N-acetylglucosamine] | 36.5 | increased back to the value before the administration |  |  |  |  |  |  | 
Cl.N[C@H]1C(O)O[C@H](CO)[C@@H](O)[C@@H]1O (stereo partly drawn) [glucosamine hydrochloride] |  |  | 70.0 | 67.1 | 31.6 | 35.3 s and 36.1 s and 28.6 s and 38.6 s and 37.1 s | 28.7 s and 37.1 s and 27.4 s and 42.3 s and 33.2 s | 35.1 | 33.7
